Reference: patent publication US9199947B2, “Biaryl-propionic acid derivatives and their use as pharmaceuticals” (SANOFI, priority 2013, dated 2015)

Target: Recombinant human cathepsin A (Homo sapiens (Human), UniProt P10619)
Test: Cathepsin A inhibitory activity (Bodipy FL-labeled bradykinin substrate, microfluidic capillary electrophoresis)
Type: biochemical
Conditions: Cathepsin A inhibitory activity, read-out: CATHA IC50
Protocol: Pharmacological Tests a) Cathepsin a Inhibitory Activity
Recombinant human cathepsin A (residues 29-480, with a C-terminal 10-His tag; R&D Systems, #1049-SE) was proteolytically activated with recombinant human cathepsin L (R&D Systems, #952-CY). Briefly, cathepsin A was incubated at 10 μg/ml with cathepsin L at 1 μg/ml in activation buffer (25 mM 2-(morpholin-4-yl)-ethanesulfonic acid (MES), pH 6.0, containing 5 mM dithiothreitol (DTT)) for 15 min at 37° C.
The activated cathepsin A was diluted in assay buffer (25 mM MES, pH 5.5, containing 5 mM DTT) and mixed with the test compound (dissolved in assay buffer containing (v/v) 3% DMSO) or, in the control experiments, with the vehicle in a multiple assay plate. After incubation for 15 min at room temperature, as substrate then bradykinin carrying an N-terminal® Bodipy FL (4,4-difluoro-5,7-dimethyl-4-bora-3a,4a-diaza-s-indacene-3-propionyl) label (JPT Peptide Technologies GmbH; dissolved in assay buffer) was added to the mixture. The final concentration of cathepsin A was 833 ng/ml and the final concentration of labeled bradykinin 2 μM. After incubation for 15 min at room temperature the reaction was stopped by the addition of stop buffer (130 mM 2-(4-(2-hydroxy-ethyl)-piperazin-1-yl)-ethanesulfonic acid, pH 7.4, containing (v/v) 0.013%° Triton X-100, 0.13% Coating Reagent 3 (Caliper Life Sciences), 6.5% DMSO and 20 μM ebelactone B (Sigma, #E0886)).
Uncleaved substrate and product were then separated by a microfluidic capillary electrophoresis on a LabChip® 3000 Drug Discovery System (12-Sipper-Chip; Caliper Life Sciences) and quantified by determination of the respective peak areas. Substrate turnover was calculated by dividing product peak area by the sum of substrate and product peak areas, and the enzyme activity and the inhibitory effect of the test compound thus quantified.

Recombinant human cathepsin A, sequence (P10619 29-326): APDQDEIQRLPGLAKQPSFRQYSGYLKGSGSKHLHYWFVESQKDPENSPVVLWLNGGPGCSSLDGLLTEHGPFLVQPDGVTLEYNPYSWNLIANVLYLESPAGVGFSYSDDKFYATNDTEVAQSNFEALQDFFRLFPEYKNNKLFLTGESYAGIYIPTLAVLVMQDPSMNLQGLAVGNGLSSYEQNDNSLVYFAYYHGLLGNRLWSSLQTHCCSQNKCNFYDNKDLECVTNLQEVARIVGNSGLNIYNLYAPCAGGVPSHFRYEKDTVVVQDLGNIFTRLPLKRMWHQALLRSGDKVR
Recombinant human cathepsin A, sequence (P10619 327-480): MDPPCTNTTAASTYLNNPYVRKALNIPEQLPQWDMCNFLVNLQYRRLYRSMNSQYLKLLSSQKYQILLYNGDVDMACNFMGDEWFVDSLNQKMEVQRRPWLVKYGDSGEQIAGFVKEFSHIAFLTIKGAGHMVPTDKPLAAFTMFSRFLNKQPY

In order of rising IC50:
1. Cc1nnc(C(CC(=O)O)c2cccc(-c3ccccc3)c2)o1 (stereo not drawn) [compound 167]  935 nM
2. Cc1cnc(C(CC(=O)O)c2cc(Cl)cc(-c3ccccc3C(=O)N(C)C)c2)s1 (stereo not drawn) [compound 116]  1440 nM
3. O=C(O)CC(c1cc(F)cc(-c2cc(F)ccc2F)c1)c1ncco1 (stereo not drawn) [compound 130]  1490 nM
4. Cc1cnc(C(CC(=O)O)c2cc(Cl)cc(-c3ccncc3F)c2)s1 (stereo not drawn) [compound 117]  1560 nM
5. O=C(O)CC(c1cc(F)cc(-c2ccccc2F)c1)c1ncco1 (stereo not drawn) [compound 133]  1720 nM
6. NC(=O)c1ccccc1-c1cc(F)cc(C(CC(=O)O)c2ncco2)c1 (stereo not drawn) [compound 134]  1770 nM
7. CC(=O)c1ccccc1-c1cc(F)cc(C(CC(=O)O)c2ncco2)c1 (stereo not drawn) [compound 136]  2030 nM
8. COc1ccc(-c2ccccc2)cc1C(CC(=O)O)c1nccs1 (stereo not drawn) [compound 168]  4940 nM
9. Cc1nnc(C(CC(=O)O)c2cccc(-c3ccncc3)c2)o1 (stereo not drawn) [compound 148]  20600 nM

Same assay, conditions: read-out: CATHA IC50

In order of rising IC50:
1. Cc1cnc(C(CC(=O)O)c2cc(Cl)cc(-c3cc(F)ccc3F)c2)s1 (stereo not drawn) [compound 101]  136 nM
2. Cc1cnc(C(CC(=O)O)c2cc(Cl)cc(-c3cccc(F)c3F)c2)s1 (stereo not drawn) [compound 109]  354 nM
3. COc1ccc(-c2cccc(Cl)c2F)cc1C(CC(=O)O)c1ncc(C)s1 (stereo not drawn) [compound 61]  954 nM
4. O=C(O)CC(c1cccc(-c2ccc3c(c2)OCCO3)c1)c1nccs1 (stereo not drawn) [compound 19]  987 nM
5. CCCOc1ccc(F)c(-c2cccc(C(CC(=O)O)c3nccs3)c2)c1 (stereo not drawn) [compound 20]  1110 nM
6. Cc1c(Cl)cccc1-c1cccc(C(CC(=O)O)c2nccs2)c1 (stereo not drawn) [compound 6]  1670 nM
7. COc1ccc(-c2cccc(F)c2F)cc1C(CC(=O)O)c1ncc(C)s1 (stereo not drawn) [compound 69]  1770 nM
8. CC(C)(C)c1cccc(-c2cccc(C(CC(=O)O)c3nccs3)c2)c1 (stereo not drawn) [compound 1]  1890 nM
9. COc1ccc(-c2cccc(F)c2)cc1C(CC(=O)O)c1ncc(C)s1 (stereo not drawn) [compound 70]  1960 nM
10. COc1ccc(-c2cccc(C)c2C)cc1C(CC(=O)O)c1ncc(C)s1 (stereo not drawn) [compound 71]  2300 nM
11. O=C(O)CC(c1cccc(-c2ccccc2)c1)c1nccs1 (stereo not drawn) [compound 10]  2590 nM
12. O=C(O)CC(c1cccc(-c2cccc(F)c2Cl)c1)c1nccs1 (stereo not drawn) [compound 11]  2720 nM
13. CC(C)COc1ccc(-c2cccc(C(CC(=O)O)c3nccs3)c2)cc1 (stereo not drawn) [compound 36]  2810 nM
14. COc1ccc(-c2ccc(C)cc2C)cc1C(CC(=O)O)c1ncc(C)s1 (stereo not drawn) [compound 75]  3090 nM
15. COc1ccc(-c2ccc(OC)c(C(CC(=O)O)c3ncc(C)s3)c2)c(F)c1 (stereo not drawn) [compound 77]  3270 nM
16. COc1ccc(-c2ccc(F)cc2C)cc1C(CC(=O)O)c1ncc(C)s1 (stereo not drawn) [compound 80]  3730 nM
17. COc1ccc(-c2cccc(Cl)c2)cc1C(CC(=O)O)c1ncc(C)s1 (stereo not drawn) [compound 81]  3740 nM
18. COc1cccc(-c2ccc(OC)c(C(CC(=O)O)c3ncc(C)s3)c2)c1 (stereo not drawn) [compound 85]  5560 nM
19. COc1ccc(-c2ccccc2Cl)cc1C(CC(=O)O)c1ncc(C)s1 (stereo not drawn) [compound 88]  6690 nM
20. COc1ccc(-c2cccc(C)c2)cc1C(CC(=O)O)c1ncc(C)s1 (stereo not drawn) [compound 90]  7120 nM
21. COc1ccc(-c2ccc(C#N)cc2)cc1C(CC(=O)O)c1ncc(C)s1 (stereo not drawn) [compound 93]  8800 nM
22. Cc1cc(-c2cccc(C(CC(=O)O)c3nccs3)c2)n(C)n1 (stereo not drawn) [compound 40]  9540 nM
23. Cc1cnc(C(CC(=O)O)c2cccc(-c3cncc(C(=O)N4CCOCC4)c3)c2)s1 (stereo not drawn) [compound 59]  13600 nM
24. Cc1cnc(C(CC(=O)O)c2cccc(-c3ccncc3)c2)s1 (stereo not drawn) [compound 60]  13700 nM
25. COc1ccc(-c2cccc(OC(F)(F)F)c2)cc1C(CC(=O)O)c1ncc(C)s1 (stereo not drawn) [compound 96]  18100 nM
26. COc1ccc(-c2ccccc2C(N)=O)cc1C(CC(=O)O)c1ncc(C)s1 (stereo not drawn) [compound 97]  19300 nM
27. Cc1nnc(C(CC(=O)O)c2cccc(-c3ccncc3)c2)o1 (stereo not drawn) [compound 16]  23200 nM
